Results as given in US12319655B2, “RAF kinase inhibitors and methods of use thereof” (Deciphera Pharmaceuticals, LLC, priority 2021, dated 2025).

Experiments:
[1] = system: Miapaca-2 cells; assay: MiaPaca-2 Cell Proliferation Assay (2); type: cell-based; conditions: Homo sapiens, MIA PaCa-2, single agent
Experimental: MiaPaca-2 Cell Proliferation Assay (2)
Miapaca-2 cells (catalog #CRL-1420) are obtained from the American Type Culture Collect (ATTC, Manassas, VA). Briefly, cells were grown in DMEM supplemented with 10% characterized fetal bovine serum (Invitrogen, Carlsbad, CA), 2.5% New Zealand sourced horse serum and 1% Penicillin/Streptomycin/L-Glutamine at 37° C., 5% CO2, and 95% humidity. Cells are expanded until reaching 70-95% confluency at which point they are sub-cultured or harvested for assay use. A serial dilution of test compound is dispensed into a 384-well black clear bottom plate in triplicate. Seven hundred fifty cells are added per well in 50 μL complete growth medium in the 384-well plate. Plates are incubated for 67-72 h at 37° C., 5% CO2, and 95% humidity. At the end of the incubation, 10 μL of a 440 μM solution of resazurin (Sigma, St. Louis, MO) in PBS is added to each well of the plate and plates are incubated for an additional 5-6 h at 37° C., 5% CO2, and 95% humidity. Plates are read on a Synergy2 or equivalent reader (Biotek, Winooski VT) using an excitation of 540 nm and an emission of 600 nm. Data is analyzed using Prism software (GraphPad, San Diego, CA) to calculate IC50 values.

[2] = system: Miapaca-2 cells; assay: MiaPaca-2 Combination Cell Proliferation Assay (2) with cobimetinib; type: cell-based; conditions: MiaPaca-2 cell proliferation, read-out: MiaPaca-2 Combo (2) IC50
Experimental: MiaPaca-2 Combination Cell Proliferation Assay (2)
Miapaca-2 cells (catalog #CRL-1420) are obtained from the American Type Culture Collect (ATCC, Manassas, VA). Briefly, cells were grown in DMEM supplemented with 10% characterized fetal bovine serum (Invitrogen, Carlsbad, CA), 2.5% New Zealand sourced horse serum and 1% Penicillin/Streptomycin/L-Glutamine at 37° C., 5% CO2, and 95% humidity. Cells are expanded until reaching 70-95% confluency at which point they are subcultured or harvested for assay use. Using the Beckman Coulter Echo 650, a threefold, 8-point serial dilution of compound was spotted column wise into a 384 well black, clear bottom, tissue culture treated plate. Likewise, a threefold, 8-point serial dilution of cobimetinib was spotted row wise into the 384 well black, clear bottom plate containing compound. DMSO concentration was constant across all wells at 0.4%. Seven hundred fifty cells are added per well in 50 μL complete growth medium in each 384-well plate. Plates are incubated for 67-72 hours at 37° C., 5% CO2, and 95% humidity. At the end of the incubation, 10 μL of a 440 μM solution of resazurin (Sigma, St. Louis, MO) in PBS is added to each well of the plate and plates are incubated for an additional 4-6 hours at 37° C., 5% CO2, and 95% humidity. Plates are read on a Synergy2 or equivalent reader (Biotek, Winooski VT) using an excitation of 540 nm and an emission of 600 nm. Drug synergy was assessed via BLISS analysis in the Combenefit software (Cancer Research UK Cambridge Institute, Cambridge, UK). Data is analyzed using Prism software (Graphpad, San Diego, CA) to calculate IC50 values. Shifts in test compound IC50 values are reported from top-constrained combination therapy curves.

| SMILES | IC50 [1] [nM] | IC50 [2] [nM] |
| --- | --- | --- |
| CNC(=O)c1cc(-c2cc(-c3cc(NC(=O)c4ccnc(C(C)(C)F)c4)ccc3Cl)ccn2)ccn1 [Example 485] | 1000 to 10000 | – |
| Cc1ccc(NC(=O)c2ccnc(C(C)(C)F)c2)cc1-c1cnnc(-c2ccnc(C(N)=O)c2)c1 [Example 486] | 1000 to 10000 | 1000 to 10000 |
| CNC(=O)c1cc(-c2cc(-c3cc(NC(=O)c4ccnc(C5(F)CC5)c4)ccc3C)ccn2)ccn1 [Example 487] | 1000 to 10000 | 100 to 500 |
| [2H]C([2H])([2H])NC(=O)c1cc(-c2cc(-c3cc(NC(=O)c4ccnc(C(C)(C)F)c4)ccc3C)ccn2)ccn1 [Example 489] | 1000 to 10000 | 100 to 500 |
| [2H]C([2H])([2H])NC(=O)c1cc(-c2cc(-c3cc(NC(=O)c4ccnc(C(C)(C)F)c4)ccc3C)cc(C)n2)ccn1 [Example 493] | 1000 to 10000 | 100 to 500 |
| CNC(=O)c1cc(-c2cc(-c3cc(NC(=O)c4ccnc(C(C)(C)F)n4)ccc3C)ccn2)ccn1 [Example 494] | 1000 to 10000 | – |
| CNC(=O)c1cc(-c2cc(-c3cc(NC(=O)c4cnnc(C(C)(C)F)c4)ccc3C)ccn2)ccn1 [Example 495] | 1000 to 10000 | – |

More lines, now with the values ahead:

| IC50 [1] [nM] | IC50 [2] [nM] | SMILES |
| --- | --- | --- |
| 1000 to 10000 | – | CNC(=O)c1cc(-c2cc(-c3cc(NC(=O)c4ccnc(C5(F)CC5)c4)ccc3C)cc(C)n2)ccn1 [Example 496] |
| 1000 to 10000 | – | CNC(=O)c1cc(-c2cc(-c3cc(NC(=O)c4ccnc(C(C)(C)F)c4)c(F)cc3C)ccn2)ccn1 [Example 497] |
| 1000 to 10000 | – | [2H]C([2H])([2H])NC(=O)c1cc(-c2cc(-c3cc(NC(=O)c4ccnc(C5(F)CC5)c4)ccc3C)cc(C)n2)ccn1 [Example 498] |
| 1000 to 10000 | – | CNC(=O)c1cc(-c2cc(-c3cc(NC(=O)c4ccnc(C(C)(C)F)c4)ncc3C)ccn2)ccn1 [Example 499] |
| 1000 to 10000 | – | Cc1ccc(NC(=O)c2cn(C)nc2C(F)(F)F)cc1-c1cncc(-c2ccnc(NC(=O)C3CC3)c2)c1 [Example 500] |
| 1000 to 10000 | – | Cc1ccc(NC(=O)c2ccc(C(F)(F)F)cc2)cc1-c1ccnc(-c2ccnc(NC(=O)C3CC3)c2)c1 [Example 501] |
| 500 to 1000 | – | Cc1ccc(NC(=O)c2cccc(C(F)(F)F)c2)cc1-c1ccnc(-c2ccnc(NC(=O)C3CC3)c2)c1 [Example 502] |
| 1000 to 10000 | – | Cc1ccc(NC(=O)c2cc(C(F)(F)F)ccc2F)cc1-c1ccnc(-c2ccnc(NC(=O)C3CC3)c2)c1 [Example 503] |
